Source: EP1466613A1, “Compositions for mucosal and oral administration comprising hCG fragments” (Biotempt B.V., priority 2003, dated 2004)
Ends that are not written are not given here.

Tested on: NF-kB
Assay: EMSA of nuclear extracts for basal and LPS induced NF-kB translocation, RAW 264.7 mouse macrophages (second experiment)
Type: cell-based
Conditions: RAW264.7 cells, LPS in combination with peptide, 30 minutes incubation
Experimental: The transcription factor NF-kB participates in the transcriptional regulation of a variety of genes. Nuclear protein extracts were prepared from LPS and peptide treated RAW264.7 cells or from LPS treated RAW264.7 cells. In order to determine whether the peptide modulates the translocation of NF-kB into the nucleus, on these extracts EMSA was performed. Here we see that indeed peptides are able to modulate the translocation of NF-kB since the amount of labeled oligonucleotide for NF-kB is reduced. […] RAW 264.7 mouse macrophages were cultured in DMEM, containing 10% or 2% FBS, penicillin, streptomycin and glutamine, at 37 °C, 5% CO2. Cells were seeded in a 12-wells plate (3x10^6 cells/ml) in a total volume of 1 ml for 2hours and then stimulated with LPS (E. coli 026:B6; Difco Laboratories, Detroit, MI, USA) and/or gene-regulatory peptide(1 microgr/ml). After 30 minutes of incubation plates were centrifuged and cells were collected for nuclear extracts. Nuclear extracts and EMSA were prepared according to Schreiber et al. Cells were collected in a tube and centrifuged for 5 minutes at 2000 rpm (rounds per minute) at 4°C (Universal 30 RF, Hettich Zentrifuges). […]

circular LQGVLPALPQVVC (also: circular, ring type not given here)
LPS induced translocation of NF-kB: inhibition of LPS induced translocation of NF-kB
